Test results from patent US20100168031A1, “Lat peptides and their use in assays for identifying immunosuppressants” (priority 2000, published 2010).
pIC50: −log10 of the molar value. Numbered stars: 1 amine (or outer) side, 2 acyl side, 3 side chain; on linkers, the order of the positions; unused ones are H or OH. Peptide text beside a SMILES is read from it. Suc = O=C(CCC(=O)[*:2])[*:1]

molecular target: T1, ZAP-70 (Homo sapiens, UniProt P43403); test: Phosphorylation of compounds of formula I by ZAP-70 measured in a competitive assay (Example C5); assay type: biochemical; conditions: non-biotinylated peptide competing with biotinylated SEQ ID NO:12; Lck-activated ZAP-70, PP2 added, 4 hours at RT; read-out: IC50, inhibition of the phosphorylation of SEQ ID NO:12 by ZAP-70
T1 construct: A nucleic acid encoding full-length human ZAP-70 (GenBank #L05148); hexa-histidine (N); made in house; host or cells: Sf9 insect cells (baculovirus)
T1 sequence (P43403 1-619): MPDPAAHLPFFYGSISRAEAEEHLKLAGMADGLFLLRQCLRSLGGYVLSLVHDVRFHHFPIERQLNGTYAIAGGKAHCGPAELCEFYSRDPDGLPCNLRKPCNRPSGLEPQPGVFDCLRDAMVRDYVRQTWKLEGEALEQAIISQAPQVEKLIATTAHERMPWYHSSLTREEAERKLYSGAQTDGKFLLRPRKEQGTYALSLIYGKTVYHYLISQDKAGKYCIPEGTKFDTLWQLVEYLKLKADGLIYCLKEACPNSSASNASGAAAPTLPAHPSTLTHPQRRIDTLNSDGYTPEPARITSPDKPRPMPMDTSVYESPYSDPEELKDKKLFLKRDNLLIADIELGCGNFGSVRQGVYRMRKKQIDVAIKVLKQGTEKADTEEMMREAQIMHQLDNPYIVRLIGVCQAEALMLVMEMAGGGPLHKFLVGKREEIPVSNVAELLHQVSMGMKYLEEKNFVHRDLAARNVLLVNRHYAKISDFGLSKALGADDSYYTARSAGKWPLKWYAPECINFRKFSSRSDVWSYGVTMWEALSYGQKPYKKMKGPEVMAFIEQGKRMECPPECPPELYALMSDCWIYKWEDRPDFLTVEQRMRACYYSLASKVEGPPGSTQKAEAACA
Method: 80 nM ZAP-70 are incubated with 80 nM Lck and 4 μM ATP in ZAP-70 kinase buffer for 1 hour at RT in a siliconized polypropylene tube. Then, the selective Lck inhibitor PP2 (see Example C2) is added (final concentration 1.2 μM) and incubated for further 10 min.
Ten μl of this solution is mixed with 10 μl biotinylated compound of e.g. SEQ ID NO:12 (1 μM) and 20 μl of the non-biotinylated peptides of compounds of formula I, e.g. by SEQ ID NO:21, SEQ ID NO:15, SEQ ID NO:16 or SEQ ID NO:17 (serial dilution 0.28 to 200 μM) and incubated for 4 hours at RT. Termination of the kinase reaction, detection phase and determination of fluorescence is performed as described in Example C1.

Molecule | pIC50
CC(C)C[C@H](NC(=O)[C@H](CC(N)=O)NC(=O)[C@H](CCC(=O)O)NC(=O)[C@H](Cc1ccc(O)cc1)NC(=O)[C@H](CC(=O)O)NC(=O)CCC(=O)O)C(N)=O [SEQ ID NO:22, HOOC-CH2-CH2-CO-Asp-Tyr-Glu-Asn-Leu-NH2] (Suc-DYENL-NH2) | 4.68 to 6.22
CC(C)C[C@H](NC(=O)[C@H](CC(N)=O)NC(=O)[C@H](CCC(=O)O)NC(=O)[C@H](Cc1ccc(O)cc1)NC(=O)[C@H](CC(=O)O)NCC(=O)O)C(N)=O [SEQ ID NO:23, HOOC-CH2-Asp-Tyr-Glu-Asn-Leu-NH2] | 4.68 to 6.22
CC(C)C[C@H](NC(=O)[C@H](Cc1ccccc1)NC(=O)[C@H](CCC(=O)O)NC(=O)[C@H](Cc1ccc(O)cc1)NC(=O)[C@H](CC(=O)O)NC(=O)CCC(=O)O)C(N)=O [SEQ ID NO:24, HOOC-CH2-CH2-CO-Asp-Tyr-Glu-Phe-Leu-NH2] (Suc-DYEFL-NH2) | 4.68 to 6.22
Ac-DYENL-NH2 [SEQ ID NO:17, acetyl-Asp-Tyr-Glu-Asn-Leu-NH2] | 4.68 to 6.22
Ac-DYENLQELN-OH [SEQ ID NO:15, acetyl-Asp-Tyr-Glu-Asn-Leu-Gln-Glu-Leu-Asn-OH] | 4.68 to 6.22
Ac-EEGAPDYENL-NH2 [SEQ ID NO:16, acetyl-Glu-Glu-Gly-Ala-Pro-Asp-Tyr-Glu-Asn-Leu-NH2] | 4.68 to 6.22
Ac-EEGAPDYENLQELN-OH [SEQ ID NO:21, acetyl-Glu-Glu-Gly-Ala-Pro-Asp-Tyr-Glu-Asn-Leu-Gln-Glu-Leu-Asn-OH] | 4.68 to 6.22
